In US10543189B2, “2-acetylnaphtho[2,3-b]furan -4,9-dione for use on treating cancer” (Boston Biomedical, Inc., priority 2013, dated 2020):
Where “and” joins values, the source holds several entries; their conditions need not be identical. Equal values may be shown once.

What was measured:
panel of cancer cells = experiment: In vitro screening of a panel of cancer cells; format: cell-based
Description: Understanding the clinical relevance of the cancer stemness markers and identifying their predictive response to the Compound of the Invention is used herein to assist clinical development by selecting patients that will most likely to derive clinical benefit. In some embodiments, the methods provided herein use one or more well-known cancer stemness marker(s), such as, for example, the expression of p-STAT3 and/or other cancer stem cell related proteins such as β-catenin and NANOG. All these proteins can be easily detected using any of a variety of art-recognized techniques. In some embodiments, the cancer sternness marker is detected with immunohistochemistry with antibodies. Using the archival tissue samples collected from the phase I trial with the Compound of the Invention, the patient response to the Compound of the Invention was analyzed based on biomarker status. […] A significant improvement in survival was detected for patients with nuclear β-Catenin localization compared with patients having β-catenin localized to the cell membrane, HR=0.043, p value <0.001. As further evidence, in an in vitro study screening a panel of cancer cells, the cell lines with nuclear β-Catenin show a lower IC50 for the Compound of the Invention. […] Thus, STAT3 activation is involved in nuclear β-catenin regulation. […]

[1] = Safety of highly pure Compound 1 in animal experiments; format: in vivo; settings: highly pure Compound 1, mice
Description: For example, FIG. 13 of WO 2011/116398 and WO 2011/116399 illustrates the toxicity observed with a composition with about 90% purity for Compound 1, while FIG. 14 of WO 2011/116398 and WO 2011/116399 illustrates that the highly pure compositions having about 95% or greater purity for Compound 1 are safe and effective. In a Phase 1 study, the dose of Compound 1 was escalated from 20 mg to 2000 mg/day, and a maximum tolerated dose (MTD) not reached. […] The clinical safety profile of the substantially pure compositions of Compound 1 is among the best for oncology drugs in history.

[2] = Pharmacokinetics when taken fasting, with milk or with food; format: in vivo, human; settings: for Tmax: human, in vivo, oral
Description: In yet another suitable dosing regimen, Compound 1 was administered with a fluid, e.g., a milk or water, with empty stomach which improves pharmacokinetical exposure (Table 12). Counterintuitively, milk helped patients with gastrointestinal adverse effects.
In yet another suitable dosing regimen, Compound 1 was administered with food which delayed the Tmax (Table 13).

CD44^high cells (FaDu) = experiment: CD44high sphere growth; format: cell-based; settings: FACS-isolated from FaDu, sphere culture, five days of treatment, FIG. 5
Description: CD44^high cells were isolated by FACS (FaDu) and were cultured in the absence of attachment and serum for 5 days to form primary spheres. Primary spheres were then dissociated in Accumax (eBioscience, San Diego, Calif.) to single cells, and were cultured as above for 72 hours before the addition of the indicated concentrations of therapeutic agents. After five days of treatment, representative sphere images were captured.
CD44^high cells were isolated by FACS (FaDu) and their growth was blocked by a Compound of the Invention (FIG. 5).

Compound: CC(=O)c1cc2c(o1)C(=O)c1ccccc1C2=O [Compound 1, 2-acetylnaphtho[2,3-b]furan-4,9-dione]
- IC50 in cell lines with nuclear β-Catenin (panel of cancer cells): lower IC50
- adverse effects [1]: No signs of any adverse effects
- Tmax ([2]; Patient 20, Fasting): 2 h
- Tmax ([2]; Patient 20, With Food): 8 h
- Tmax ([2]; Patient 20, With Milk): 2 h
- Tmax ([2]; Patient 21, Fasting): 6 h
- Tmax ([2]; Patient 21, With Food): 6 h
- Tmax ([2]; Patient 21, With Milk): 6 h
- Tmax ([2]; Patient 22, Fasting): 8 h
- Tmax ([2]; Patient 22, With Food): 10 h
- Tmax ([2]; Patient 22, With Milk): 8 h
- Tmax ([2]; Patient 24, With Food): 10 h
- Tmax ([2]; Patient 24, With Milk): 6.3 h
- Tmax ([2]; Patient 27, With Food): 6 h
- Tmax ([2]; Patient 27, With Milk): 0.5 h
- Tmax ([2]; Patient 28, With Food): 10 h
- Tmax ([2]; Patient 28, With Milk): 6 h
- AUC0-24hrs Fold Change ([2]; with Milk versus Fasting): 1.56 and 1.55
- Cmax Fold Change ([2]; with Milk versus Fasting): 1.52 and 1.13
- CD44^high cells growth (CD44^high cells (FaDu)): blocked
